Experimental data: patent publication US11149035B2, “Chemical compounds as H—PGDS inhibitors” (GlaxoSmithKline Intellectual Property Development Limited, priority 2017, dated 2021)

The compounds below were run against T1, haematopoietic prostaglandin D synthase (H-PGDS) (Homo sapiens, UniProt O60760) (assay: H-PGDS RapidFire high throughput mass spectrometry assay (conversion of PGH2 to PGD2)). Conditions: 10 nM H-PGDS, PGH2 formed in situ by COX-2 from arachidonic acid; four parameter curve fit; read-out: Potency Range (mean pIC50) (converted).
T1 construct: Full length human H-PGDS cDNA (Invitrogen Ultimate ORF IOH13026) was amplified by PCR; 6-His (N); TEV protease cleavage site (N); made in house; host or cells: E. coli BL21 (DE3*)
T1 sequence (O60760 whole entry): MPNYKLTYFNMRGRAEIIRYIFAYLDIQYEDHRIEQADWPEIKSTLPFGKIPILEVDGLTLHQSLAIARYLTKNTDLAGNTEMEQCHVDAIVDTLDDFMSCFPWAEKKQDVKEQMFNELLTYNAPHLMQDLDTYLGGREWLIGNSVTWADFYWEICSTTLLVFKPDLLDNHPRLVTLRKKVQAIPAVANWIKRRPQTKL
Type: biochemical
Method: The H-PGDS RapidFire™ mass spectrometric assay monitors conversion of prostaglandin H2 (PGH2) to prostaglandin D2 (PGD2) by haematopoietic prostaglandin D synthase (H-PGDS). In the assay format described here, the substrate (PGH2) is formed in situ by the action of cyclooxygenase-2 on arachidonic acid. This first step is set up to be fast, and generates a burst of PGH2 at ˜10 μM. The PGH2 is then further converted to PGD2 by the H-PGDS enzyme. […] Plates are then read on the RapidFire™ high throughput solid phase extraction system (Agilent) which incorporates a solid phase extraction step coupled to a triple quadrupole mass spectrometer (AB SCIEX). Relative levels of PGD2 and PGF2α, which acts as a surrogate for substrate, are measured and a percent conversion calculated. Inhibitors are characterised as compounds which lower the conversion of PGH2 to PGD2.
Full length human H-PGDS cDNA (Invitrogen Ultimate ORF IOH13026) was amplified by PCR with the addition of a 5′ 6-His tag and TEV protease cleavage site. The PCR product was digested with NdeI and XhoI and ligated into pET22b+ (Merck Novagen®). Expression was carried out in E. coli strain BL21 (DE3*) using auto-induction Overnight Express™ Instant TB medium (Merck Novagen®) supplemented with 1% glycerol. The culture was first grown at 37° C. and the temperature was reduced to 25° C. when OD600 reached 2.0. Cells were harvested by centrifugation after a further 18 hours. 10 g of E. coli cell pellet was suspended to a total volume of 80 mL in lysis buffer (20 mM Tris-Cl pH 7.5, 300 mM NaCl, 20 mM imidazole, 5 mM β-mercaptoethanol, 10% glycerol). 1 mg/mL protease inhibitors (Protease Inhibitor Cocktail Set III, Merck Calbiochem®) and 1 mg/mL lysozyme were added to the cell suspension. The suspension was then sonicated for 5 min (UltraSonic Processor VCX 750, Cole-Parmer Instrument Co.) with a micro probe (50% amplitude, 10 sec on/off) and then centrifuged at 100,000 g for 90 minutes (at 4° C.). The supernatant was loaded onto a Ni-NTA HiTrap column (5 mL, GE Healthcare, pre-equilibrated in lysis buffer). The column was washed with 10 column volumes of lysis buffer and eluted with lysis buffer containing 500 mM imidazole. The pooled protein peak fractions were concentrated using a 10 kDa centrifugal filter at 3500 g and 4° C. (Amicon Ultra-15 centrifugal filter unit with Ultracel-10 membrane from Millipore). Further purification of the concentrated protein was carried out using gel filtration chromatography on a HiLoad 26/600 Superdex 75 preparative grade column (GE Healthcare Life Sciences) using 50 mM Tris pH 7.5, 50 mM NaCl, 1 mM dithiothreitol, 1 mM MgCl2. Fractions containing the protein were pooled, concentrated as described above, and stored at −80° C.
The full length human COX-2 gene (accession number L15326) was amplified by PCR to generate an EcoRI—HindIII fragment containing an in-frame FLAG tag. This was subcloned into pFastBac 1 (Invitrogen). The COX-2 FLAG plasmid was recombined into the baculovirus genome according to the BAC-to-BAC protocol described by Invitrogen. Transfection into Spodoptera frugiperda (Sf9) insect cells was performed using Cellfectin (Invitrogen), according to the manufacturer's protocol. Super Sf9 cells were cultured in EX420 media (SAFC Biosciences) to a density of approximately 1.5×10^6 cells/mL within a wave bioreactor. Recombinant virus was added at a Multiplicity of Infection (MOI) of 5 and the culture was allowed to continue for 3 days. Cells were harvested using a continuous feed centrifuge run at 2500 g at a rate of approximately 2 L/min with cooling. The resultant cell slurry was re-centrifuged in pots (2500 g, 20 min, 4° C.) and the cell paste was stored at −80° C. 342 g of cell paste was re-suspended to a final volume of 1600 mL in a buffer of 20 mM Tris-Cl pH 7.4, 150 mM NaCl, 0.1 mM EDTA, 1.3% w/v n-octyl-[…] containing 20 Complete EDTA-free Protease Inhibitor Cocktail tablets (Roche Applied Science). […]

| Structure (SMILES) | IC50 [nM] |
| --- | --- |
| C[C@@H]1CCN1c1cc2ncc(C(=O)N[C@H]3CC[C@H](C(C)(C)O)CC3)cc2cn1 [Example 12, N-(trans-4-(2-Hydroxypropan-2-yl)cyclohexyl)-7-((R)-2-methylazetidin-1-yl)-1,6-naphthyridine-3-carboxamide] | 100 to 1000 |
| O=C(N[C@H]1CC[C@H](N2CC(F)(F)C2)CC1)c1cnc2nc(C3CC3)ccc2c1 [Example 54, 7-Cyclopropyl-N-(trans-4-(3,3-difluoroazetidin-1-yl)cyclohexyl)-1,8-naphthyridine-3-carboxamide] | 10 to 79.4 |
| O=C(N[C@H]1C[C@@H](N[C@H](CO)C(F)(F)F)C1)c1cnc2nc(C3CC3)ccc2c1 [Example 68, 7-Cyclopropyl-N-(cis-3-(((R)-1,1,1-trifluoro-3-hydroxypropan-2-yl)amino)cyclobutyl)-1,8-naphthyridine-3-carboxamide] | 100 to 1000 |
| C[C@H]1CCN1c1cc2ncc(C(=O)N[C@H]3CCNC3=O)cc2cn1 [Example 22, 7-((S)-2-Methylazetidin-1-yl)-N—((S)-2-oxopyrrolidin-3-yl)-1,6-naphthyridine-3-carboxamide] | 10 to 79.4 |
| C[C@H]1CCN1c1nc2ncc(C(=O)NC3CC4(C3)CC(C(C)(C)O)C4)cc2cc1Cl (stereo partly drawn) [Example 61, (S)-6-Chloro-N-(6-(2-hydroxypropan-2-yl)spiro[3.3]heptan-2-yl)-7-(2-methylazetidin-1-yl)-1,8-naphthyridine-3-carboxamide] | < 10 |
| O=C(N[C@H]1C[C@](O)(C(F)(F)F)C1)c1cnc2nc(C3CC3)ccc2c1 [Example 53, 7-cyclopropyl-N-((1s,3s)-3-hydroxy-3-(trifluoromethyl)cyclobutyl)-1,8-naphthyridine-3-carboxamide] | 100 to 1000 |
| CC(C)(O)[C@H]1CC[C@H](NC(=O)c2cnc3ccncc3c2)CC1 [Example 1, N-(trans-4-(2-Hydroxypropan-2-yl)cyclohexyl)-1,6-naphthyridine-3-carboxamide] | 1260 to 10000 |
| C[C@H]1CCN1c1cc2ncc(C(=O)N[C@H]3C[C@@](C)(O)C3)cc2cn1 [Example 23, N-((1s,3R)-3-Hydroxy-3-methylcyclobutyl)-7-((S)-2-methylazetidin-1-yl)-1,6-naphthyridine-3-carboxamide] | 100 to 1000 |
| C[C@]1(O)C[C@@H](NC(=O)c2cnc3cc(C4CC4)ncc3c2)C1 [Example 31, 7-Cyclopropyl-N-((1s,3s)-3-hydroxy-3-methylcyclobutyl)-1,6-naphthyridine-3-carboxamide] | 100 to 1000 |
| CC(N[C@H]1CC[C@H](NC(=O)c2cnc3cc(C4CC4)ncc3c2)CC1)C(F)F (mixture of isomers) [Example 39, 7-cyclopropyl-N-(trans-4-((1,1-difluoropropan-2-yl)amino)cyclohexyl)-1,6-naphthyridine-3-carboxamide] | 10 to 79.4 |
| CC(C)(O)[C@H]1CC[C@H](NC(=O)c2cnc3cc(C4CC4)ncc3c2)CC1 [Example 10, 7-Cyclopropyl-N-((trans)-4-(2-hydroxypropan-2-yl)cyclohexyl)-1,6-naphthyridine-3-carboxamide] | 10 to 79.4 |
| O=C(N[C@H]1C[C@@H](N[C@H](CO)C(F)(F)F)C1)c1cnc2cc(C3CC3)ncc2c1 [Example 42, 7-Cyclopropyl-N-(cis-3-(((R)-1,1,1-trifluoro-3-hydroxypropan-2-yl)amino)cyclobutyl)-1,6-naphthyridine-3-carboxamide] | 100 to 1000 |
| CC(C)(O)[C@H]1CC[C@H](NC(=O)c2cnc3nc(NCC(F)(F)F)ccc3c2)CC1 [Example 17, N-(trans-4-(2-Hydroxypropan-2-yl)cyclohexyl)-7-((2,2,2-trifluoroethyl)amino)-1,8-naphthyridine-3-carboxamide] | 100 to 1000 |
| O=C(N[C@H]1CC[C@H](N[C@H](CO)C(F)(F)F)CC1)c1cnc2cc(C3CC3)ncc2c1 [Example 37, 7-Cyclopropyl-N-((trans)-4-(((R)-1,1,1-trifluoro-3-hydroxypropan-2-yl)amino)cyclohexyl)-1,6-naphthyridine-3-carboxamide] | 10 to 79.4 |
| C[C@@H]1CNC(=O)[C@H]1NC(=O)c1cnc2nc(N3CC[C@@H]3C)c(Cl)cc2c1 [Example 67, 6-Chloro-N-((3S,4R)-4-methyl-2-oxopyrrolidin-3-yl)-7-((S)-2-methylazetidin-1-yl)-1,8-naphthyridine-3-carboxamide] | < 10 |
| C[C@H]1CCN1c1nc2ncc(C(=O)N[C@H]3C[C@](O)(C(F)(F)F)C3)cc2cc1Cl [Example 66, 6-Chloro-N-((1s,3R)-3-hydroxy-3-(trifluoromethyl)cyclobutyl)-7-((S)-2-methylazetidin-1-yl)-1,8-naphthyridine-3-carboxamide] | < 10 |
| COc1ccc2cc(C(=O)N[C@H]3CC[C@H](C(C)(C)O)CC3)cnc2n1 [Example 50, N-(trans-4-(2-Hydroxypropan-2-yl)cyclohexyl)-7-methoxy-1,8-naphthyridine-3-carboxamide] | 10 to 79.4 |
| O=C(N[C@H]1CCNC1=O)c1cnc2nc(C3CC3)c(Cl)cc2c1 [Example 71, (S)-6-Chloro-7-cyclopropyl-N-(2-oxopyrrolidin-3-yl)-1,8-naphthyridine-3-carboxamide] | < 10 |
| O=C(N[C@H]1CCNC1=O)c1cnc2cc(N3CCC3)ncc2c1 [Example 20, (S)-7-(Azetidin-1-yl)-N-(2-oxopyrrolidin-3-yl)-1,6-naphthyridine-3-carboxamide] | 10 to 79.4 |
| O=C(N[C@H]1CC[C@H](N2CC(F)(F)C2)CC1)c1cnc2cc(C3CC3)ncc2c1 [Example 38, 7-Cyclopropyl-N-(trans-4-(3,3-difluoroazetidin-1-yl)cyclohexyl)-1,6-naphthyridine-3-carboxamide] | 10 to 79.4 |
| O=C(N[C@H]1C[C@](O)(C(F)(F)F)C1)c1cnc2nc(C3CC3)c(Cl)cc2c1 [Example 77, 6-Chloro-7-cyclopropyl-N-((1s,3s)-3-hydroxy-3-(trifluoromethyl)cyclobutyl)-1,8-naphthyridine-3-carboxamide] | < 10 |
| CC(C)(O)[C@H]1CC[C@H](NC(=O)c2cnc3nc(N4CCC4)c(Cl)cc3c2)CC1 [Example 25, 7-(Azetidin-1-yl)-6-chloro-N-(trans-4-(2-hydroxypropan-2-yl)cyclohexyl)-1,8-naphthyridine-3-carboxamide] | < 10 |
| CSc1ncc2cc(C(=O)N[C@H]3CC[C@H](C(C)(C)O)CC3)cnc2n1 [Example 70, N-(trans-4-(2-Hydroxypropan-2-yl)cyclohexyl)-2-(methylthio)pyrido[2,3-d]pyrimidine-6-carboxamide] | < 10 |
| CC(C)(O)[C@H]1CC[C@H](NC(=O)c2cnc3cc(NC4CC4)ncc3c2)CC1 [Example 14, 7-(Cyclopropylamino)-N-(trans-4-(2-hydroxypropan-2-yl)cyclohexyl)-1,6-naphthyridine-3-carboxamide] | 10 to 79.4 |
| O=C(N[C@H]1C[C@H](N[C@H](CO)C(F)(F)F)C1)c1cnc2cc(C3CC3)ncc2c1 [Example 43, 7-Cyclopropyl-N-(trans-3-(((R)-1,1,1-trifluoro-3-hydroxypropan-2-yl)amino)cyclobutyl)-1,6-naphthyridine-3-carboxamide] | 100 to 1000 |
